Data: patent US6730503B1 (Roche Vitamins Inc., priority 1996, dated 2004)
Where two headings read alike, the source gives them in different places.

Experiments:
[1] = test system: Gluconobacter oxydans DSM No. 4025 AADH chimera Enzyme sB (Enzyme A residues 1-95, Enzyme B residues 96-180, Enzyme A residues 180-556; parents SEQ ID NO: …); assay: Kinetic properties of chimera Enzyme sB; type: biochemical; settings: read-out: Km (sorbitol)
From the text: (§1) To further improve the chimeras, Enzyme A/B21, Enzyme A/B22, Enzyme A/B25 and Enzyme A/B31 in the view point of the preferable codon usage, the C-terminal two thirds consisting of Enzyme B residues were replaced with the C-terminal two thirds consisting of Enzyme A residues. Enzyme A/B21, Enzyme A/B22, Enzyme A/B25 and Enzyme A/B31 genes were used for constructing new chimera genes of Enzyme sA21 (Enzyme A ammo acid residue Nos. 1-128, Enzyme B amino acid residue Nos. 129-180 and Enzyme A amino acid residue Nos. 180-556), Enzyme sA22 (Enzyme A amino acid residue Nos. 1-125, Enzyme B amino acid residue Nos. 126-180 and Enzyme A amino acid residue Nos. 180-556), Enzyme sA2 (Enzyme A amino acid residue Nos. 1-135, Enzyme B amino acid residue Nos. 136-180 and Enzyme A amino acid residue Nos. 180-556) and Enzyme sB (Enzyme A amino acid residue Nos. 1-95, Enzyme B amino acid residue Nos. 96-180 and Enzyme A amino acid residue Nos. 180-556) (FIG. 4). […]

Enzyme A = assay: Effect of metals and inhibitors on enzyme activity, PMS-DCIP assay; type: biochemical, G. oxydans DSM No. 4025
Enzyme A′ = assay: as above; type: biochemical, G. oxydans DSM No. 4025
Enzyme A″ = assay: as above; type: biochemical, G. oxydans DSM No. 4025
Enzyme B = assay: as above; type: biochemical, G. oxydans DSM No. 4025
[2] = test system: Gluconobacter oxydans DSM No. 4025 AADH chimera Enzyme sA2 (Enzyme A residues 1-135, Enzyme B residues 136-180, Enzyme A residues 180-556; parents SEQ ID NO: …); assay: Kinetic properties of chimera Enzyme sA2; type: biochemical; settings: read-out: Km (glucose)
From the text: as §1

[3] = target: T1, Gluconobacter oxydans DSM No. 4025 alcohol/aldehyde dehydrogenase Enzyme B, wild type, SEQ ID NO: 8 (Ketogulonicigenium vulgare, UniProt F9Y8N6); assay: Kinetic properties of Enzyme B; type: biochemical
T1 construct: 579 aa precursor with 23 aa signal peptide
T1 sequence (F9Y8N6 24-579): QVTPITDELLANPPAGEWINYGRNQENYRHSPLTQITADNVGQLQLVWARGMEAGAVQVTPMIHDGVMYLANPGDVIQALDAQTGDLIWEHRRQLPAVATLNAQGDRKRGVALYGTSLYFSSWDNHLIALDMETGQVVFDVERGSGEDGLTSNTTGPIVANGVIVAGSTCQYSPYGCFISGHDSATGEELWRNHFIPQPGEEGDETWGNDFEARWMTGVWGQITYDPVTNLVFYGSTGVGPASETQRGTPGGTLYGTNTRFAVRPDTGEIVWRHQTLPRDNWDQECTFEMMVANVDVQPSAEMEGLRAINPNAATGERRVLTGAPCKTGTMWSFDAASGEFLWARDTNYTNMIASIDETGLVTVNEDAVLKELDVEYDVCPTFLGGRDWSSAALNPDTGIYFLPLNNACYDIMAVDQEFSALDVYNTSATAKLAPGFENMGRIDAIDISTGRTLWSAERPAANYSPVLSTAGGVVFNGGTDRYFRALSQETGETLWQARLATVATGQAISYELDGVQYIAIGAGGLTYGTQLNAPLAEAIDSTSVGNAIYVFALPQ
From the text: Tables 11 and 12 summarizes the kinetic properties of chimera enzymes, Enzyme sA2 and Enzyme sB in comparison with Enzyme A and Enzyme B, respectively.

[4] = target: T2, Gluconobacter oxydans DSM No. 4025 alcohol/aldehyde dehydrogenase Enzyme A′, SEQ ID NO: 6 (Ketogulonicigenium vulgare, UniProt F9Y5Q6); assay: Effect of inhibitors on activity of Enzyme A′ (PMS-DCIP assay, substrate n-propanol); type: biochemical; settings: 10 mM inhibitor, 30 minutes at 25° C., pH 7.5, relative to blank incubation
T2 construct: 579 aa precursor with 23 aa signal peptide; PMS-DCIP assay with n-propanol
T2 sequence (F9Y5Q6 with tags, fused parts or gaps): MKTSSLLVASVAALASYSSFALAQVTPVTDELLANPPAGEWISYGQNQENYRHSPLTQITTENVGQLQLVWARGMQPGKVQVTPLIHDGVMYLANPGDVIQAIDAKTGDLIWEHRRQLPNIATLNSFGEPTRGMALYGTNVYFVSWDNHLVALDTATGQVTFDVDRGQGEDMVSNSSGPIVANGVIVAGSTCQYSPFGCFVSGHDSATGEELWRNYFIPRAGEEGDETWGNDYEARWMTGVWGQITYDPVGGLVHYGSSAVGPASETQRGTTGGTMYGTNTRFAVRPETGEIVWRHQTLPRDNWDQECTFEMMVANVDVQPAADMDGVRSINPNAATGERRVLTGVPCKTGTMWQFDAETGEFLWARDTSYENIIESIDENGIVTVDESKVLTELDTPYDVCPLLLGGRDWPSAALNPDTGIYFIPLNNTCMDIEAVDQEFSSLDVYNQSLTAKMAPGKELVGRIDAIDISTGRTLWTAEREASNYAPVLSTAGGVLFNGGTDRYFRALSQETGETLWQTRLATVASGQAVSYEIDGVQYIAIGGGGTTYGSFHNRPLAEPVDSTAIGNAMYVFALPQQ
Procedure: (§2) The enzymatic activity of the AADHs herein can be determined by methods known in the art, such as by photometric analysis using a spectrophotometer. In accordance with the present invention, one unit of enzyme activity was defined as the amount of enzyme which catalyzed the reduction of 1 μmole of DCIP per minute. The extinction coefficient of DCIP at pH 8.0 was taken as 15 mM^−1. […] A second cuvette, i.e., a reference cuvette, contains all the above components except the substrate. The reference cuvette is used to standardize the background absorbance resulting from a substrate-independent (endogenous) reaction.
(§3) Enzyme activities of each clone (cell free extract, soluble fraction and membrane fraction) were measured by photometric analysis. The cells of each clone were inoculated in 5 ml of MB medium in a test tube and cultivated at 30° C. for 24 hours. The resulting broth was transferred into 200 ml of fresh MB medium in 500 ml flask and the flask was shaken on the rotary flask shaker at 30° C. for 24 hours. […] Substrate-dependent decreasing rate of absorbance of DCIP at 600 nm was measured at 25° C. by using a Kontron spectrophotometer UVIKON 810.
(§4) The enzyme (about 0.05 mg/ml) in 25 mM HEPES buffer, pH 7.5, containing 5% sucrose was incubated with metal or inhibitor for 30 minutes at 25° C. […] Remaining activity is expressed as relative activity against blank incubation.

[5] = target: T3, Gluconobacter oxydans DSM No. 4025 alcohol/aldehyde dehydrogenase Enzyme B, SEQ ID NO: 8 (Ketogulonicigenium vulgare, UniProt F9Y8N6); assay: Effect of inhibitors on activity of Enzyme B (PMS-DCIP assay, substrate D-sorbitol); type: biochemical; settings: 10 mM inhibitor, 30 minutes at 25° C., pH 7.5, relative to blank incubation
T3 construct: 579 aa precursor with 23 aa signal peptide; PMS-DCIP assay with D-sorbitol
T3 sequence (F9Y8N6 24-579): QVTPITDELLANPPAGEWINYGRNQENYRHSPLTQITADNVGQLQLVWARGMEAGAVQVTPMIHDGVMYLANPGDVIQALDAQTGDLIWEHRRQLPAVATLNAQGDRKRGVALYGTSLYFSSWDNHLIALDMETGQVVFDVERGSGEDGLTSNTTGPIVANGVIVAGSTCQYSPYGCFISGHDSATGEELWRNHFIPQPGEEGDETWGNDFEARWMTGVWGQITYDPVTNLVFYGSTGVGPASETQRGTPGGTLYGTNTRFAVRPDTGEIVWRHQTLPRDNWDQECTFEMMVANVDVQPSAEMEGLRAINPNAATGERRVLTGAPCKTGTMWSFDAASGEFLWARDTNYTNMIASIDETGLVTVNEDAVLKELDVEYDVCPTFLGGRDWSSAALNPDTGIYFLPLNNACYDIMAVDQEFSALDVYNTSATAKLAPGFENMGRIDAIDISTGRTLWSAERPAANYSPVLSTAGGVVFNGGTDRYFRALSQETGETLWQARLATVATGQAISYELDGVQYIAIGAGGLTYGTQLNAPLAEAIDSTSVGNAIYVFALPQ
Procedure: as §2, §3, §4

[6] = substrate: OCC1(O)OC[C@H](O)[C@@H](O)[C@@H]1O; assay: purified protein, by the assay type; settings: other: Enzyme A
[7] = 0.5 mM compound, 30 minutes at 25° C., substrate L-Sorbose, relative to blank incubation
[8] = 5 mM compound, 30 minutes at 25° C., substrate L-Sorbose, relative to blank incubation
[9] = 5 mM compound, 30 minutes at 25° C., substrate n-Propanol, relative to blank incubation
[10] = 5 mM compound, 30 minutes at 25° C., substrate D-Sorbitol, relative to blank incubation
[11] = 1 mM compound, 30 minutes at 25° C., substrate L-Sorbose, relative to blank incubation
[12] = 1 mM compound, 30 minutes at 25° C., substrate n-Propanol, relative to blank incubation
[13] = 1 mM compound, 30 minutes at 25° C., substrate D-Sorbitol, relative to blank incubation

## OC[C@@H](O)[C@@H](O)[C@H](O)[C@@H](O)CO [sorbitol, D-sorbitol]
[1]
  Km: 61 mM

## Cl.NO [Hydroxylamine-HCl]
Enzyme A; [7]
  Relative remaining activity: 104.6
Enzyme A′; 0.5 mM compound, 30 minutes at 25° C., substrate n-Propanol, relative to blank incubation
  Relative remaining activity: 98.8
Enzyme A″; [7]
  Relative remaining activity: 97.2
Enzyme B; 0.5 mM compound, 30 minutes at 25° C., substrate D-Sorbitol, relative to blank incubation
  Relative remaining activity: 102.1

## [Cl][Cu][Cl] [CuCL2]
Enzyme A; [8]
  Relative remaining activity: 0.0
Enzyme A′; [9]
  Relative remaining activity: 0.0
Enzyme A″; [8]
  Relative remaining activity: 0.0
Enzyme B; [10]
  Relative remaining activity: 0.0

## [F-].[Na+] [NaF]
Enzyme A; [11]
  Relative remaining activity: 98.2
Enzyme A′; [12]
  Relative remaining activity: 97.1
Enzyme A″; [11]
  Relative remaining activity: 94.9
Enzyme B; [13]
  Relative remaining activity: 100.8

## O=S(=O)([O-])[O-].[Ni+2] [NiSO4]
Enzyme A; [8]
  Relative remaining activity: 42.7
Enzyme A′; [9]
  Relative remaining activity: 59.7
Enzyme A″; [8]
  Relative remaining activity: 90.3
Enzyme B; [10]
  Relative remaining activity: 79.4

## [Cl-].[Cl-].[Mg+2] [MgCl2]
Enzyme A; [8]
  Relative remaining activity: 96.3
Enzyme A′; [9]
  Relative remaining activity: 85.3
Enzyme A″; [8]
  Relative remaining activity: 78.8
Enzyme B; [10]
  Relative remaining activity: 100.0

## [Cl][Mn][Cl] [MmCl2]
Enzyme A; [8]
  Relative remaining activity: 0.0
Enzyme A′; [9]
  Relative remaining activity: 45.7
Enzyme A″; [8]
  Relative remaining activity: 0.0
Enzyme B; [10]
  Relative remaining activity: 0.0

## [Cl-].[Cl-].[Zn+2] [ZnCl2]
Enzyme A; [8]
  Relative remaining activity: 1.5
Enzyme A′; [9]
  Relative remaining activity: 6.1
Enzyme A″; [8]
  Relative remaining activity: 19.2
Enzyme B; [10]
  Relative remaining activity: 0.0

## [Ca+2].[Cl-].[Cl-] [CaCl2]
Enzyme A; [8]
  Relative remaining activity: 98.8
Enzyme A′; [9]
  Relative remaining activity: 95.3
Enzyme A″; [8]
  Relative remaining activity: 123.0
Enzyme B; [10]
  Relative remaining activity: 102.9

## [Cl][Fe]([Cl])[Cl] [FeCl3]
Enzyme A; [8]
  Relative remaining activity: 7.8
Enzyme A′; [9]
  Relative remaining activity: 0.0
Enzyme A″; [8]
  Relative remaining activity: 44.7
Enzyme B; [10]
  Relative remaining activity: 0.0

## [Cl-].[Cl-].[Co+2] [CoCl2]
Enzyme A
  Relative remaining activity: 16.6
Enzyme A′
  Relative remaining activity: 7.9
Enzyme A″
  Relative remaining activity: 46.9
Enzyme B
  Relative remaining activity: 23.6

## OC[C@H]1OC(O)[C@H](O)[C@@H](O)[C@@H]1O (stereo partly drawn) [glucose]
[2]
  Km: 20 mM

## [Cl][Fe][Cl] [FeCl2]
Enzyme A; [8]
  Relative remaining activity: 16.6
Enzyme A′; [9]
  Relative remaining activity: 0.0
Enzyme A″; [8]
  Relative remaining activity: 0.0
Enzyme B; [10]
  Relative remaining activity: 5.9

## OCC1(O)OC[C@H](O)[C@@H](O)[C@@H]1O (stereo partly drawn) [sorbose, L-sorbose]
[3]
  Ki: 100 mM

## O=C(O)CN(CCOCCOCCN(CC(=O)O)CC(=O)O)CC(=O)O [EGTA]
[4]
  remaining activity at 10000 µM: 16.7%
[5]
  remaining activity at 10000 µM: 74%

## O=C(O)CI [ICH2COONa]
Enzyme A; [11]
  Relative remaining activity: 97.2
Enzyme A′; [12]
  Relative remaining activity: 78.3
Enzyme A″; [11]
  Relative remaining activity: 95.3
Enzyme B; [13]
  Relative remaining activity: 100.2

B1: Gluconobacter oxydans DSM No. 4025 alcohol/aldehyde dehydrogenase Enzyme A, wild type, SEQ ID NO: 5 (Ketogulonicigenium vulgare WSH-001) (protein)
chain: QVTPVTDELLANPPAGEWISYGQNQENYRHSPLTQITTENVGQLQLVWARGMQPGKVQVTPLIHDGVMYLANPGDVIQAIDAKTGDLIWEHRRQLPNIATLNSFGEPTRGMALYGTNVYFVSWDNHLVALDTATGQVTFDVDRGQGEDMVSNSSGPIVANGVIVAGSTCQYSPFGCFVSGHDSATGEELWRNYFIPRAGEEGDETWGNDYEARWMTGAWGQITYDPVTNLVHYGSTAVGPASETQRGTPGGTLYGTNTRFAVRPDTGEIVWRHQTLPRDNWDQECTFEMMVTNVDVQPSTEMEGLQSINPNAATGERRVLTGVPCKTGTMWQFDAETGEFLWARDTNYQNMIESIDENGIVTVNEDAILKELDVEYDVCPTFLGGRDWPSAALNPDSGIYFIPLNNVCYDMMAVDQEFTSMDVYNTSNVTKLPPGKDMIGRIDAIDISTGRTLWSVERAAANYSPVLSTGGGVLFNGGTDRYFRALSQETGETLWQTRLATVASGQAISYEVDGMQYVAIAGGGVSYGSGLNSALAGERVDSTAIGNAVYVFALPQ
[6]
  Km: 36 mM mM
